Tested on: Lactate dehydrogenase (LDH) activity
Test: LDH activity assay on human skin lysate (Ldh platereader protocol)
Type: biochemical
Conditions: human skin lysate pretreated with benzil prior to incubation with MPC inhibitors; FIG. 7
Procedure: Human skin samples were homogenized with a Benchmark BeadBlaster24R in 500 μl of Pierce RIPA Lysis and Extraction buffer (Thermo Scientific Cat No: 89900), centrifuged at 10,000 g for 15 minutes at 4° C. to remove insoluble material, and the soluble fraction quantified by Pierce BCA assay (Thermo Scientific Cat No: 23225). Lactate dehydrogenase activity was quantified using a Sigma Aldrich Lactate Dehydrogenase Activity Assay Kit (Catalog No: MAK066). Briefly, 10 μg of sample was loaded per well in a 96 well plate along with 20 uM of Pelage compounds and pre-incubated at 37° C. for 30 minutes before addition of Ldh assay master mix. Using a Biotek Synergy HTX multi-mode reader, the plate was incubated at 37° C. and absorbance measurements at 450 nm (A450) were taken every 3 minutes for 30 minutes. The LDH activity of each sample was quantified by calculating the AA450 over time.

Q: `N#C/C(=C\c1cn(-c2ccccc2)c2ccccc12)C(=O)O` [UK5099] was tested. Which “effect on LDH activity after pretreatment with a carboxylesterase inhibitor (benzil)” value did it give?
A: no effect
